From article PMC11640089, “JRM-28, a Novel HDAC2 Inhibitor, Upregulates Plasticity-Associated Proteins in Hippocampal Neurons and Enhances Morphological Plasticity via Activation of CREB: Implications for Alzheimer’s Disease” (Cells, 2024) come the findings set out here.

Data set [1] deals with mouse primary hippocampal neurons. Nature of the data set: Dendrite and spine analysis in E18 mouse primary hippocampal neurons. In kind it is cell-based. The conditions noted are these: 5 µM, 48 h. On the procedure:
Primary neuronal cell culture was performed based on a protocol approved by the Institutional Animal Care and Use Committee (IACUC) of the University of Wisconsin-Milwaukee, Milwaukee, WI-53211, and by the guidelines set by the National Institute of Health. Embryonic day 18 (E18) fetuses were harvested, and hippocampal tissue was dissected from brains and then processed for single cell culture in poly-D-lysine-coated plates, as discussed elsewhere. Neuronal cells were maintained with B-27^TM-plus-supplemented complete neurobasal media for 7–10 days until fully differentiated. After that, the treatment with JRM-28 was performed. […]
For counting spine density, dissociated E18 hippocampal neurons maintained 18 days in vitro were stained with Alexa-647 conjugated phalloidin (Cat #A22287) together with MAP2. Only densely stained neurons (>20 spines every 10 µm dendrite) were counted. The total length of each dendrite was measured at 400× magnification using an Accu-Scope EXC-500 microscope (NY, USA). The number of spines on the dendrites was counted under oil immersion. As some of the spines were hidden under the dendrite, only spines that protruded laterally from the shafts of the dendrites into the surrounding area of clear neuropil were counted. […]

The test system of the next data set is SHSY5Y cells. Kind of data set: TUNEL assay. In kind it is cell-based, human. The conditions noted are these: 24 h, in the presence of DTT. On the procedure: To assess the effect of JRM-28 on apoptosis in SHS5Y cells, a total of 3 × 10^5 cells suspended in […] of complete neurobasal medium was distributed in each well of a poly-D-lysine-coated eight-well Chamber Slide. After 48 h, cells were treated with 2, 5, 10, 20, 30, and 50 μM of JRM-28 under serum-free conditions and then incubated for an additional 24 h. The TUNEL activity was measured by colorimetric microscopy as directed in the protocol described in DeadEnd™ Colorimetric TUNEL System (Promega, Madison, WI, USA). Hematoxylin staining was adopted to counterstain the slide.

Another data set has as its system CREB. Kind of data set: CREB family expression (PCR array, RT-PCR, immunoblot) in SHSY5Y cells. In kind it is cell-based, human. The protocol:
Total RNA was isolated from SHSY5Y neurons using Gene JET RNA Purification Kit (Thermofisher Scientific; Cat #K0731) following the manufacturer’s protocol. RNA was converted to cDNA using the GoScript™ Reverse Transcriptase kit (Promega, Cat # A5001). Semi-quantitative RT-PCR was carried out as described earlier using an RT-PCR kit from Promega (Cat# M7502). Briefly, 1 µg of total RNA was reverse-transcribed using oligo(dT)12–18 as a primer and MMLV reverse transcriptase in a 20 µL reaction mixture. The resulting cDNA was diluted by nuclease-free H2O in a ratio of 1:2, and diluted cDNA was amplified using the following primers (Table 2).
(§1) Immunoblot analysis was carried out as described earlier. Briefly, SHSY5Y neuronal cell homogenates were electrophoresed by 4–12% Tris-Glycine gradient gel, proteins were transferred onto a 0.45 μm nitrocellulose membrane, and the protein band was visualized with Odyssey Sa infrared scanner after immunolabeling with primary antibodies followed by infrared fluorophore-tagged secondary antibody (Licor Biosciences, Lincoln, NE, USA).
(In general: A western blot detects proteins with antibodies after separation by electrophoresis.)

A further data set deals with NR2A and GluR1. Kind of data set: NR2A and GluR1 immunofluorescence in E18 mouse hippocampal neurons. In kind it is cell-based. Conditions: 5 µM. The protocol: (§2) Immunofluorescence analysis was performed as described earlier. Briefly, cells cultured on coverslip contained in six-well plates (Lab-Tek II) were fixed with 4% paraformaldehyde for 20 min followed by two rinses in TBST. Samples were incubated in a 1:1 solution of TBST and blocking buffer containing rabbit anti-NR2A (1:250), anti-GluR1 (1:250), ant-HDAC2 (1:250), anti-CREB (1:250), and anti-MAP2 (1:250) for 2 h at 37 °C. After three washes in PBST (15 min each), slides were further incubated with FIT-C and TRIT-C-conjugated secondary antibodies. For negative controls, a set of culture slides was incubated under similar conditions with secondary antibodies and without the primary antibodies (Table 3). The samples were mounted and observed under an Accuscope fluorescent microscope. The images were captured and merged in CaptaVision^TM imaging software.

The next data set concerns HDAC2. Nature of the data set: HDAC2 immunoblot and immunofluorescence in SHSY5Y cells. In kind it is cell-based, human. On the procedure:
as §2, §1

Data set [2] deals with SHSY5Y human neuronal cells. Nature of the data set: MAP2 immunofluorescence/immunoblot, dendritic morphogenesis in SHSY5Y neurons. In kind it is cell-based. The protocol:
Primary neuronal cell culture was performed based on a protocol approved by the Institutional Animal Care and Use Committee (IACUC) of the University of Wisconsin-Milwaukee, Milwaukee, WI-53211, and by the guidelines set by the National Institute of Health. Embryonic day 18 (E18) fetuses were harvested, and hippocampal tissue was dissected from brains and then processed for single cell culture in poly-D-lysine-coated plates, as discussed elsewhere. Neuronal cells were maintained with B-27^TM-plus-supplemented complete neurobasal media for 7–10 days until fully differentiated. After that, the treatment with JRM-28 was performed. SHSY5Y cells were grown, maintained, and passaged with complete DMEM media (a bottle of DMEM supplemented with 10% FBS, 2 mM L-glutamine, and 100 units/mL antibiotics); otherwise, for neuronal differentiation study, SHSY5Y was seeded with complete neurobasal medium. For making AD neurons, commercially purchased (Axol Bioscience Ltd.) A246E psen1 neural stem cells (NSCs) were maintained with KnockOut^TM DMEM/F12 media supplemented with StemPro^TM Neural Supplement, bFGF, EGF, 2 mM GlutMAX^TM supplement, and 10 mL/L antibiotic-antimycotic solution. These […] NSCs were grown in a […] cell culture flask coated with Geltrex^TM matrix until fully confluent and then detached by Accutase, centrifuged, washed, and plated in a poly-D-lysine-coated plate supplemented with complete neurobasal media for neuronal differentiation. After one week, when neurons were differentiated, JRM-28 treatment was conducted.
Immunofluorescence analysis was performed as described earlier. Briefly, cells cultured on coverslip contained in six-well plates (Lab-Tek II) were fixed with 4% paraformaldehyde for 20 min followed by two rinses in TBST. Samples were incubated in a 1:1 solution of TBST and blocking buffer containing rabbit anti-NR2A (1:250), anti-GluR1 (1:250), ant-HDAC2 (1:250), anti-CREB (1:250), and anti-MAP2 (1:250) for 2 h at 37 °C. After three washes in PBST (15 min each), slides were further incubated with FIT-C and TRIT-C-conjugated secondary antibodies. […]

For `CN(C(=O)CC(O)/C=C/CCSS(=O)(=O)CC/C=C/C(O)CC(=O)N(C)c1ccccc1)c1ccccc1` (stereo not drawn) [JRM-28, S-((E)-5-hydroxy-7-(methyl(phenyl)amino)-7-oxohept-3-en-1-yl) (E)-5-hydroxy-7-(methyl(phenyl)amino)-7-oxohept-3-ene-1-sulfonothioate], in data set [1] (18 DIV), the “spine maturation (head-to-shaft ratio >0.6)” value was “significantly induced the maturation of spines”. In addition, the MAP2-ir basal dendrites result in data set [1] (8 days in vitro) is on record as “significantly upregulated the synthesis of MAP2-ir basal dendrites”. Also, the TUNEL cytotoxicity result is “caused nuclear condensation” in the data set with SHSY5Y cells (20 µM), “induced significant cell death” in the data set with SHSY5Y cells (30 µM), “induced significant cell death” in the data set on SHSY5Y cells (50 µM) and “did not induce any cell death” with SHSY5Y cells (lower doses up to 10 µM). Further, in the data set on CREB (5 µM), the “CREB and CREB-dependent gene expression (RT2 Profiler PCR Array)” value was “strongly upregulated the expressions of the creb gene and 37 other CREB-dependent genes”. In addition, in the data set with CREB (5 µM), the “creb mRNA expression (semi-quantitative RT-PCR)” value is “upregulated the mRNA expression of creb”. Moreover, the “crem mRNA expression (semi-quantitative RT-PCR)” value in the data set with CREB (2 and 5 µM) was “failed to upregulate the expression of crem”. Moreover, the “CREB protein expression (immunoblot)” value in the data set on CREB (increasing concentrations) is reported as “upregulated the expression of CREB protein”. The “expressions of NR2A and GluR1 (IF, MFI)” value with NR2A and GluR1 is “upregulated”. The “nuclear translocation of HDAC2 (immunocytochemistry)” value in the data set with HDAC2 (5 µM) was “significantly arrested the nuclear translocation of HDAC2”. In addition, in the data set with HDAC2 (5 µM, SHSY5Y cells), the “HDAC2 expression in nuclei (dual IF with CREB)” value was “significantly attenuated the expression of HDAC2 in the nuclei”. In addition, the “HDAC2 expression (immunoblot)” value in the data set on HDAC2 (2, 5, and 10 µM, 24 h, versus control) is given as “did not upregulate the expression of HDAC2”. Further, the “dendritic length / dendritic morphogenesis” value in data set [2] (5 µM versus control, n = 200 per group) is recorded as “augmented the dendritic morphogenesis”. Also, the “dendritic pruning (MAP2-ir appendages)” value in data set [2] (5 µM, 48 h (legend: 24 h)) is reported as “significantly stimulated dendritic pruning”. For the same compound, the “MAP2 expression (immunoblot)” value in data set [2] (5 and 10 µM) was “upregulated the expressions of MAP2”.
